Source: ChEMBL document CHEMBL1201862, “PubChem BioAssay data set” (2004)
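In this assay, cells in 96-well plates receive the compound at five concentrations for 48 hours. Endpoints are linearly interpolated between the surrounding concentrations. GI50 = concentration required for 50% inhibition of growth.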 Active and inactive are the calls of the source. Cut-off read from the data, not from the text of the source: active = GI50 up to about 1.1 µM and inactive = higher.

Assays:
Assay in all cases: NCI anticancer screen, dose series, 48 h
[1] = tested on: KM12
[2] = tested on: IGROV-1
[3] = tested on: SK-MEL-28
[4] = tested on: DMS-273
[5] = tested on: MDA-N
[6] = tested on: SW-620
[7] = tested on: SK-MEL-5
[8] = tested on: U-251
[9] = tested on: HOP-92
[10] = tested on: SK-OV-3
[11] = tested on: UO-31
[12] = tested on: HT-29
[13] = tested on: MDA-MB-435
[14] = tested on: MCF7
[15] = tested on: OVCAR-5
[16] = tested on: COLO 205
[17] = tested on: K562
[18] = tested on: SNB-75
[19] = tested on: PC-3
[20] = tested on: MDA-MB-231

Measured: GI50

Cn1c2ccccc2c2ccc3c(c21)C(=O)C=CC3=O
inactive: [1] 22.9 µM | [2] 15.4 µM | [3] 11.1 µM | [4] 12.9 µM | [5] 6.82 µM | [6] 2.02 µM | [7] 15.2 µM | [8] 11.4 µM | [9] 2.52 µM | [10] 17.1 µM | [11] 6.93 µM | [12] 10.5 µM | [13] 5.11 µM | [14] 3.3 µM | [15] 14.1 µM | [16] 2.43 µM | [17] 1.75 µM | [18] 16.7 µM | [19] 5.6 µM | [20] 6.73 µM

CN(CC(=O)O)S(=O)(=O)c1ccc(F)cc1
inactive: [1] > 100 µM | [2] > 100 µM | [3] > 100 µM | [4] > 100 µM | [6] > 100 µM | [7] > 100 µM | [8] > 100 µM | [9] > 100 µM | [10] > 100 µM | [11] > 100 µM | [12] > 100 µM | [15] > 100 µM | [16] > 100 µM | [17] > 100 µM | [18] > 100 µM

CC(C(=O)[O-])S(=O)(=O)O.CCc1c2cc(OC)c(OC)cc2cc2c3cc(OC)c(OC)cc3cc[n+]12
inactive: [1] 17.8 µM | [2] 41.5 µM | [3] 21.7 µM | [4] 45.2 µM | [5] 9.89 µM | [6] 26.5 µM | [7] 15.3 µM | [8] 6.27 µM | [9] 29 µM | [10] 41.6 µM | [11] 53.7 µM | [12] 45.2 µM | [13] 4.27 µM | [14] 9.89 µM | [15] 58.7 µM | [16] 4.78 µM | [17] 7.57 µM | [18] 7.94 µM | [19] 17.9 µM | [20] 20.1 µM

COc1ccc(-c2cc(=O)c3ccccc3o2)cc1N
inactive: [1] 29.3 µM | [2] 55.5 µM | [3] 57.8 µM | [4] 41.3 µM | [6] 38.4 µM | [7] 25.8 µM | [8] 69.3 µM | [9] 76.2 µM | [10] > 100 µM | [11] 19.9 µM | [12] 32.8 µM | [15] 56 µM | [16] 33.4 µM | [17] 12.2 µM | [18] 18.7 µM

Cc1ccc(NC(=O)CCc2nnc3s/c(=C\c4cccc([N+](=O)[O-])c4)c(=O)n23)cc1
inactive: [1] > 100 µM | [2] > 100 µM | [3] > 100 µM | [4] > 100 µM | [6] 19.3 µM | [7] > 100 µM | [8] 47.9 µM | [9] 85.3 µM | [10] > 100 µM | [11] > 100 µM | [12] > 100 µM | [15] > 100 µM | [16] > 100 µM | [17] > 100 µM | [18] 40.6 µM

O=C1OC(c2ccccc2)C2CC3CC4(CCC3CN12)OCCO4 (stereo not given)
inactive: [1] > 100 µM | [2] > 100 µM | [3] > 100 µM | [4] > 100 µM | [6] > 100 µM | [7] 17.9 µM | [8] > 100 µM | [9] 80 µM | [10] > 100 µM | [11] > 100 µM | [12] > 100 µM | [15] > 100 µM | [16] > 100 µM | [17] 45.9 µM | [18] 52 µM
